Patent US6869939B2, “Formulations containing amiodarone and sulfoalkyl ether cyclodextrin” (CyDex, Inc., priority 2002, dated 2005)
Like-named read-outs stand apart in the source and are kept apart here.

Experiments:
[1] = room temperature (not heated), pH 4.5
Excerpt: The following table can be used to predict the ratio of components required to achieve the indicated amiodarone concentrations at room temperature (not heated) and pH 4.5.

[2] = pH 4.5
Excerpt: The mixture can optionally further comprise a buffer or other charged species wherein the concentration of the buffer or other charged species is less than about 0.5M.

[3] = SBE7-β-CD 0.5% w/v (0.00231 Molar)
[4] = SBE7-β-CD 1% w/v (0.00462 Molar)
[5] = SBE7-β-CD 3% w/v (0.0139 Molar)
[6] = SBE7-β-CD 5% w/v (0.0231 Molar)
[7] = SBE7-β-CD 30% w/v (0.139 Molar)
[8] = SBE7-β-CD 50% w/v (0.231 Molar)
[9] = SBE7-β-CD 80% w/v (0.370 Molar), by extrapolation of phase solubility data

For CCCCc1oc2ccccc2c1C(=O)c1cc(I)c(OCCN(CC)CC)c(I)c1.Cl [Amiodarone HCl, (2-butyl-3-benzofuranyl)[4-[2-(diethylamino)ethoxy]-3,5-diiodophenyl]methanone hydrochloride], the “Amiodarone (Ami)” value [1, 3] was 0.482 mg/mL, the “Amiodarone (Ami) Molar” value [1, 3] was 0.000708 Molar and the “Amiodarone (Ami)” value [1, 4] was 3.0 mg/mL. The “Amiodarone (Ami) Molar” value [1, 4] was 0.0045 Molar, the “Amiodarone (Ami)” value [1, 5] was 20.6 mg/mL and the “Amiodarone (Ami) Molar” value [1, 5] was 0.03019 Molar. The “Amiodarone (Ami)” value [1, 6] was 28.8 mg/mL, the “Amiodarone (Ami) Molar” value [1, 6] was 0.0423 Molar and the “Amiodarone (Ami)” value [1, 7] was 53.8 mg/mL. The “Amiodarone (Ami) Molar” value [1, 7] was 0.079 Molar, the “Amiodarone (Ami)” value [1, 8] was 72.2 mg/mL and the “Amiodarone (Ami) Molar” value [1, 8] was 0.106 Molar. For the same molecule, the “Amiodarone (Ami)” value [1, 9] was 100.8 mg/mL and the “Amiodarone (Ami) Molar” value [1, 9] was 0.148 Molar.
For “dimethyl-beta cyclodextrin [Methyl (DS˜14)]”, the “times SBE7-β-CD is more effective at solubilizing amiodarone than the named cyclodextrin” value [2] was 1.7 times.
